The values that follow are results of earlier work, collected in patent EP4568488B1, “VEGETABLE- AND/OR FRUIT-CONTAINING SNACK FOOD PRODUCTS AND MANUFACTURE THEREOF” (PepsiCo International Limited, priority 2022, dated 2024).

Read-outs that look alike come from different tables or passages of the source.

For `CC1=C(/C=C/C(C)=C/C=C/C(C)=C/C=C/C=C(C)/C=C/C=C(C)/C=C/C2=C(C)CCCC2(C)C)C(C)(C)CCC1` [β-carotene], the “half-life time of β-carotene” value is recorded as 3.02 ± 0.04 h (convective hot-air drying of carrot slices at 45°C) and 1.43 ± 0.03 h (convective hot-air drying of carrot slices at 65°C).
